Read-outs that look alike come from different tables or passages of the source.
Molecular target: JAK3 enzyme (Homo sapiens (Human), UniProt P52333)
Assay: JAK Caliper Enzyme Assay at 4 μM or 1 mM ATP
Format: biochemical
Description: JAK Caliper Enzyme Assay at […] or 1 mM ATP
Test article was solubilized in dimethyl sulfoxide (DMSO) to a stock concentration of 30 mM. An 11-point half log dilution series was created in DMSO with a top concentration of 600 μM. […] The compound plates were diluted 1 to 60 resulting in a top final assay compound concentration of 10 μM and a 2% DMSO concentration.
Test article and assay controls were added to a 384-well plate. Reaction mixtures contained 20 mM HEPES, pH 7.4, 10 mM magnesium chloride, 0.01% bovine serum albumin (BSA), 0.0005% Tween […] or 1 mM ATP and […] peptide substrate. […] The assays were initiated by the addition 1 nM JAK3 enzyme and were incubated at room temperature 75 minutes for JAK3. Enzyme concentrations and incubation times were optimized for each new enzyme preps and were modified slightly over time to ensure 20%-30% phosphorylation. The assays were stopped with a final concentration of 10 mM EDTA, 0.1% Coating Reagent and 100 mM HEPES, pH=7.4. The assay plates were placed on a Caliper Life Science Lab Chip 3000 (LC3000) instrument, and each well was sampled using appropriate separation conditions to measure the unphosphorylated and phosphorylated peptide.

[1] = read-out: JAK3 (4 μM ATP) IC50, 4 μM ATP
[2] = read-out: JAK3 (1 mM ATP) IC50, 1 mM ATP

Chain of JAK3 enzyme (P52333 whole entry, species assumed): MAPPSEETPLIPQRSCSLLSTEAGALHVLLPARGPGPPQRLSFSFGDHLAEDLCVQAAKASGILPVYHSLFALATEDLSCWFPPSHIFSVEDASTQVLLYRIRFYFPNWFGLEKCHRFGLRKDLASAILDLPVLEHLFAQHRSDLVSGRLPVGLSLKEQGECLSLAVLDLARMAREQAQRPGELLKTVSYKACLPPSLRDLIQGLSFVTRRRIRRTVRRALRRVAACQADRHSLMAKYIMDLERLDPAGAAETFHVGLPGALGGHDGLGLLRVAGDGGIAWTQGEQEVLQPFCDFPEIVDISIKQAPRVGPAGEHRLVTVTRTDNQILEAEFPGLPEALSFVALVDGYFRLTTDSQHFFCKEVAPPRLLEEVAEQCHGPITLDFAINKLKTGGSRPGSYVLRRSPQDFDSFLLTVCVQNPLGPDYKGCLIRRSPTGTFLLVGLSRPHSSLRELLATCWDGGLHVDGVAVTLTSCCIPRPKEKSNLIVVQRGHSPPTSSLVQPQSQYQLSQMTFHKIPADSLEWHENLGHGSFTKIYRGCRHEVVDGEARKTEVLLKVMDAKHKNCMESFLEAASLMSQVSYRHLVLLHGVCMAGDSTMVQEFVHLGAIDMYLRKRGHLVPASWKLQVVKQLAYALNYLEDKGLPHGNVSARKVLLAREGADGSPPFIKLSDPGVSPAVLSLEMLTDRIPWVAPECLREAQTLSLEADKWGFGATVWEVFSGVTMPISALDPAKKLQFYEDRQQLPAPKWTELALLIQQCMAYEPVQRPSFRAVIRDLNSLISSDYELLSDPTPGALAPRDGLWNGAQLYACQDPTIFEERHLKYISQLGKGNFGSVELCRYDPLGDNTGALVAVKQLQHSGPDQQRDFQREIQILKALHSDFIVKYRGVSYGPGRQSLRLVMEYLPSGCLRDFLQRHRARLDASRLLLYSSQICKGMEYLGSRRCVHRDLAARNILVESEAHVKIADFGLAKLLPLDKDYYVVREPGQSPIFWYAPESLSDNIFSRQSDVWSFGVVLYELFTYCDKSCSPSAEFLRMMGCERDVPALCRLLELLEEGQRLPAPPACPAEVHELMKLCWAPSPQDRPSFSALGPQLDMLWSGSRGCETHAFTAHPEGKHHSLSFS

| IC50 [1] [nM] | IC50 [2] [nM] | SMILES |
| --- | --- | --- |
| 265 | > 10000 | C=CC(=O)N1C[C@H](Nc2ncnc3[nH]ccc23)CC[C@H]1CC [Example 124, 1-[(2R,5R)-2-Ethyl-5-(7H-pyrrolo[2,3-d]pyrimidin-4-ylamino)piperidin-1-yl]prop-2-en-1-one] |
| 1420 | > 10000 | C=CC(=O)N1C[C@@H](Nc2ncnc3[nH]ccc23)CC[C@@H]1CC [Example 125, 1-[(2S,5S)-2-Ethyl-5-(7H-pyrrolo[2,3-d]pyrimidin-4-ylamino)piperidin-1-yl]prop-2-en-1-one] |
| 602 | > 10000 | C=CC(=O)N1C[C@@H](Nc2ncnc3[nH]ccc23)[C@@H]2CC[C@H]1C2 [Example 126, 1-((1S,4S,5R)-4-(7H-pyrrolo[2,3-d]pyrimidin-4-ylamino)-2-azabicyclo[3.2.1]octan-2-yl)prop-2-en-1-one] |
| 190 | > 10000 | C=CC(=O)N1C[C@H](Nc2ncnc3[nH]ccc23)[C@H]2CC[C@@H]1C2 [Example 127, 1-((1R,4R,5S)-4-(7H-pyrrolo[2,3-d]pyrimidin-4-ylamino)-2-azabicyclo[3.2.1]octan-2-yl)prop-2-en-1-one] |
| 75.2 |  | C=CC(=O)N1CC[C@@H](C)[C@@H](N(C)c2ncnc3[nH]ccc23)C1 [Example 130, 1-{(3R,4R)-4-Methyl-3-[methyl(7H-pyrrolo[2,3-d]pyrimidin-4-yl)amino]piperidin-1-yl}prop-2-en-1-one] |
| 988 |  | C=CC(=O)N1CC[C@@H]2CN(c3ncnc4[nH]ccc34)[C@@H]2C1 [Example 131, 1-[(1S,6R)-8-(7H-Pyrrolo[2,3-d]pyrimidin-4-yl)-3,8-diazabicyclo[4.2.0]oct-3-yl]prop-2-en-1-one] |
| 71.2 |  | C=CC(=O)N1CC[C@H]2CN(c3ncnc4[nH]ccc34)[C@H]2C1 [Example 134, 1-[(1R,6S)-8-(7H-Pyrrolo[2,3-d]pyrimidin-4-yl)-3,8-diazabicyclo[4.2.0]oct-3-yl]prop-2-en-1-one] |
| > 10000 |  | C/C=C/C(=O)N1CCC[C@@H](N(C)c2ncnc3[nH]cc(CCOC)c23)C1 [Example 135, (2E)-1-[(3R)-3-{[5-(2-Methoxyethyl)-7H-pyrrolo[2,3-d]pyrimidin-4-yl](methyl)amino}-piperidin-1-yl]but-2-en-1-one] |
| 238 |  | C=CC(=O)N1CCC[C@@H](N(C)c2ncnc3[nH]cc(CCOC)c23)C1 [Example 136, 1-[(3R)-3-{[5-(2-Methoxyethyl)-7H-pyrrolo[2,3-d]pyrimidin-4-yl](methyl)amino]piper-idin-1-yl]prop-2-en-1-one] |
| 0.3 |  | C=CC(=O)N1CCC[C@@H](Nc2ncnc3[nH]cc(Cc4ccc(O)cc4)c23)C1 [Example 137, 1-[(3R)-3-{[5-(4-Hydroxybenzyl)-7H-pyrrolo[2,3-d]pyrimidin-4-yl]amino}piperidin-1-yl]prop-2-en-1-one] |
| 110 |  | C/C=C/C(=O)N1CCC[C@@H](Nc2ncnc3[nH]cc(Cc4ccc(O)cc4)c23)C1 [Example 138, (2E)-1-[(3R)-3-{[5-(4-Hydroxybenzyl)-7H-pyrrolo[2,3-d]pyrimidin-4-yl]amino}piperidin-1-yl]but-2-en-1-one] |
| 83.1 |  | C=C(C)C(=O)N1CCC[C@@H](Nc2ncnc3[nH]cc(Cc4ccc(O)cc4)c23)C1 [Example 139, 1-[(3R)-3-{[5-(4-hydroxybenzyl)-7H-pyrrolo[2,3-d]pyrimidin-4-yl]amino}piperidin-1-yl]-2-methylprop-2-en-1-one] |
| 225 |  | C=CC(=O)N1CCC[C@@H](Nc2ncnc3[nH]cc(C(=O)N(C)C)c23)C1 [Example 142, 4-{[(3R)-1-acryloylpiperidin-3-yl]amino}-N,N-dimethyl-7H-pyrrolo[2,3-d]pyrimidine-5-carboxamide] |
| 144 |  | C=CC(=O)N1CCC[C@@H](Nc2ncnc3[nH]cc(C(=O)NCCO)c23)C1 [Example 143, 4-{[(3R)-1-acryloylpiperidin-3-yl]amino}-N-(2-hydroxyethyl)-7H-pyrrolo[2,3-d]pyrimidine-5-carboxamide] |
| 139 |  | C=CC(=O)N1CCC[C@@H](Nc2ncnc3[nH]cc(C(=O)NCC)c23)C1 [Example 144, 4-{[(3R)-1-acryloylpiperidin-3-yl]amino}-N-ethyl-7H-pyrrolo[2,3-d]pyrimidine-5-carboxamide] |
| 112 |  | C=CC(=O)N1CCC[C@@H](Nc2ncnc3[nH]cc(C(=O)NC)c23)C1 [Example 145, 4-{[(3R)-1-acryloylpiperidin-3-yl]amino}-N-methyl-7H-pyrrolo[2,3-d]pyrimidine-5-carboxamide] |

| IC50 [1] [nM] | IC50 [2] [nM] | SMILES |
| --- | --- | --- |
| 957 |  | C=CC(=O)N1CCC[C@@H](Nc2ncnc3[nH]cc(C(=O)N4CCCC4)c23)C1 [Example 146, 1-[(3R)-3-{[5-(pyrrolidin-1-ylcarbonyl)-7H-pyrrolo[2,3-d]pyrimidin-4-yl]amino}pipendin-1-yl]prop-2-en-1-one] |
| > 10000 |  | C/C=C/C(=O)N1CCC[C@@H](Nc2ncnc3[nH]cc(C(=O)N4CCCC4)c23)C1 [Example 147, (2E)-1-[(3R)-3-{[5-(pyrrolidin-1-ylcarbonyl)-7H-pyrrolo[2,3-d]pyrimidin-4-yl]amino}pipendin-1-yl]but-2-en-1-one] |
| 6960 |  | C/C=C/C(=O)N1CCC[C@@H](Nc2ncnc3[nH]cc(C(=O)NCCO)c23)C1 [Example 148, 4-({(3R)-1-[(2E)-but-2-enoyl]piperidin-3-yl}amino)-N-(2-hydroxyethyl)-7H-pyrrolo[2,3-d]pyrimidine-5-carboxamide] |
| > 10000 |  | C/C=C/C(=O)N1CCC[C@@H](Nc2ncnc3[nH]cc(C(=O)NCCOC)c23)C1 [Example 149, 4-({(3R)-1-[(2E)-but-2-enoyl]piperidin-3-yl}amino)-N-(2-methoxyethyl)-7H-pyrrolo[2,3-d]pyrimidine-5-carboxamide] |
| 4240 |  | C=C(C)C(=O)N1CCC[C@@H](Nc2ncnc3[nH]cc(CCO)c23)C1 [Example 152, 1-[(3R)-3-{[5-(2-Hydroxyethyl)-7H-pyrrolo[2,3-d]pyrimidin-4-yl]amino}piperidin-1-yl]-2-methylprop-2-en-1-one] |
| 7.2 |  | C=CC(=O)N1CCC[C@@H](Nc2c(C#N)cnc3[nH]ccc23)C1 [Example 156, 4-{[(3R)-1-Acryloylpiperidin-3-yl]amino}-1H-pyrrolo[2,3-b]pyridine-5-carbonitrile] |
| 1470 |  | CN(C)C/C=C/C(=O)N1CCC[C@@H](Nc2ncnc3[nH]cc(CCC#N)c23)C1 [Example 157, 3-[4-({(3R)-1-[(2E)-4-(Dimethylamino)but-2-enoyl]piperidin-3-yl}amino)-7H-pyrrolo[2,3-d]pyrimidin-5-yl]propanenitrile] |
| > 10000 |  | N#CCCc1c[nH]c2ncnc(N[C@@H]3CCCN(C(=O)/C=C/CO)C3)c12 [Example 158, 3-[4-({(3R)-1-[(2E)-4-Hydroxybut-2-enoyl]piperidin-3-yl}amino)-7H-pyrrolo[2,3-d]pyrimidin-5-yl]propanenitrile] |
| > 10000 |  | C/C=C/C(=O)N1CCC[C@@H](Nc2ncnc3[nH]cc(CC(C)(C)O)c23)C1 [Example 159, (2E)-1-[(3R)-3-{[5-(2-Hydroxy-2-methylpropyl)-7H-pyrrolo[2,3-d]pyrimidin-4-yl]amino}piperidin-1-yl]but-2-en-1-one] |
| 0.6 | 47.1 | C=CC(=O)N1C[C@H](Nc2ncnc3[nH]cc(C#N)c23)CC[C@@H]1C [Example 163, 4-{[(3R,6S)-1-Acryloyl-6-methylpiperidin-3-yl]amino}-7H-pyrrolo[2,3-d]pyrimidine-5-carbonitrile] |
| 0.5 | 22.7 | C=CC(=O)N1C[C@H](Nc2ccnc3[nH]cc(C#N)c23)CC[C@@H]1C [Example 165, 4-{[(3R,6S)-1-Acryloyl-6-methylpiperidin-3-yl]amino}-1H-pyrrolo[2,3-b]pyridine-3-carbonitrile] |
| 370 | > 10000 | C=CC(=O)N1Cc2ncn(C)c2C(Nc2ncnc3[nH]ccc23)C1 (stereo not drawn) [Example 166, 1-[1-Methyl-7-(7H-pyrrolo[2,3-d]pyrimidin-4-ylamino)-1,4,6,7-tetrahydro-5H-imidazo[4,5-c]pyridin-5-yl]prop-2-en-1-one] |
| 2410 |  | C=CC(=O)NC1CCN(c2cnc3[nH]ccc3n2)C1 (stereo not drawn) [Example 167, N-[1-(5H-pyrrolo[2,3-b]pyrazin-2-yl)pyrrolidin-3-yl]prop-2-enamide] |
| 42.8 | 4730 | C=CC(=O)N(C)C1CCN(c2cnc3[nH]cc(C(=O)NC(C)C)c3n2)CC1 [Example 169, 2-{4-[acryloyl(methyl)amino]piperidin-1-yl}-N-(propan-2-yl)-5H-pyrrolo[2,3-b]pyrazine-7-carboxamide] |
| 3.3 | 392 | C=CC(=O)N1CC[C@@H]2CN(c3cnc4[nH]cc(C(=O)NC(C)C)c4n3)C[C@@H]21 [Example 170, 2-[(3aR,6aR)-1-acryloylhexahydropyrrolo[3,4-b]pyrrol-5(1H)-yl]-N-(propan-2-yl)-5H-pyrrolo[2,3-b]pyrazine-7-carboxamide] |
| 0.4 | 32.7 | C=CC(=O)N1CC[C@H](Nc2cnc3[nH]cc(C(=O)NC(C)C)c3n2)C1 [Example 171, 2-{[(3S)-1-acryloylpyrrolidin-3-yl]amino}-N-(propan-2-yl)-5H-pyrrolo[2,3-b]pyrazine-7-carboxamide] |

— patent publication US20250134869A1, “Pyrrolo[2,3-d]pyrimidinyl, Pyrrolo[2,3-b]pyrazinyl and Pyrrolo[2,3-d]pyridinyl Acryla-mides” (Pfizer Inc, priority 2021, published 2025)
